Source: publication PMC10897476, “Pyridylpiperazine efflux pump inhibitor boosts in vivo antibiotic efficacy against K. pneumoniae” (EMBO Molecular Medicine, 2023)
Where two headings read alike, the source gives them in different places. Marks after values point to notes of the source that are not given here.

Key:
E. coli BW25113 = assay: PyrPip boosting of pyridomycin activity in E. coli (resazurin reduction); type: cell-based, Escherichia coli; details: for EC90: E. coli BW25113 in the presence of 8 μg/mL pyridomycin, resazurin reduction, mean ± SEM, read-out: PyrPip antibiotic boosting activity EC90
Excerpt: With the aim of developing a PyrPip for in vivo efficacy studies in mice, it was important to optimise the metabolic stability of these efflux pump inhibitors to guarantee sufficient exposure in mice needed for antibiotic boosting. […] To identify metabolically stabilised PyrPips while maintaining AcrB inhibition, it was therefore decided to explore modifications to the quinoline core as well as the introduction of substituents at position 6 of the quinoline ring.

[1] = system: K. pneumoniae ATCC 43816 (WT); assay: MIC of antibiotics with and without EPI (REMA), WT strain; type: cell-based, Klebsiella pneumoniae; details: for MIC: Klebsiella pneumoniae
Procedure: Overnight cultures were diluted to an OD600 = 0.001 in CAMHB followed by addition of efflux pump inhibitors (EPIs) at a final concentration of 100 µM. […] Plates were incubated at 37 °C for up to 20 h. […] MICs were defined as the concentration that prevented 90% of resazurin turnover compared to the non-treated bacteria.

[2] = system: K. pneumoniae RamR^mut (K124*stop); assay: MIC of antibiotics with and without EPI (REMA), RamR mutant; type: cell-based, Klebsiella pneumoniae; details: for Minimum Inhibitory Concentration: K. pneumoniae RamR^mut; for MIC: Klebsiella pneumoniae, read-out: Minimum Inhibitory Concentration
Procedure: (§1) MIC experiments were carried out according to the CLSI guidelines (CLSI [2023]). Overnight cultures were diluted to an OD600 = 0.001 in CAMHB followed by addition of efflux pump inhibitors (EPIs) at a final concentration of 100 µM. […] Plates were incubated at 37 °C for up to 20 h. Bacterial viability was evaluated using the resazurin microtitre assay (REMA) and measured by fluorescence using a Tecan Spaert multimode plate reader (Ex: 530 nm Em: 590 nm). MICs were defined as the concentration that prevented 90% of resazurin turnover compared to the non-treated bacteria.
(§2) Mutations in acrB or ramR identified in the BDM88855.HCl (1’) resistant mutant (a.k.a., KPJC11) were introduced individually into K. pneumoniae ATCC 43816 chromosome by allelic exchange (Cianfanelli et al, [2020]). Briefly, 1-kb PCR products centred around each point mutation were generated by amplifying acrB with primers RH1251 ([…][…]) and RH1252 ([…][…]) or ramR with primers RH1249 ([…][…]) and RH1250 ([…][…]) from KPJC11 genomic DNA. PCR fragments were cloned into pFOK (Cianfanelli et al, [2020]) using NEB-building kit ([New England Biolabs]) to generate pEP1533 and pEP1534. Correct plasmids were confirmed by sequencing and introduced into K. pneumoniae ATCC43816 WT via conjugation with the MFDpir+ E. coli donor strain. Exconjugants were selected on kanamycin (50 mg/L) plates at 37 °C and plasmid chromosomal integration was checked by PCR. […] The next day, cultures were diluted and plated onto LB agar. Isolated colonies were then patched onto LB plates with or without kanamycin (50 mg/L) and Km^S candidates were evaluated for correct allelic exchange via acrB or ramR sequencing and then WGS to confirm no additional mutations were introduced.

[3] = system: K. pneumoniae AcrB^V448E RamR^mut; assay: MIC of antibiotics with and without EPI (REMA), double mutant; type: cell-based, Klebsiella pneumoniae; details: for Minimum Inhibitory Concentration: K. pneumoniae AcrB^V448E RamR^mut; for MIC: Klebsiella pneumoniae, read-out: Minimum Inhibitory Concentration
Procedure: as §1

K. pneumoniae AcrB^V448E = assay: MIC of antibiotics with and without EPI (REMA), AcrB V448E mutant; type: cell-based, Klebsiella pneumoniae; details: for Minimum Inhibitory Concentration: K. pneumoniae AcrB^V448E; for MIC: Klebsiella pneumoniae, read-out: Minimum Inhibitory Concentration
Procedure: as §1, §2

[4] = K. pneumoniae WT, + 100 µM PAβN
[5] = ATCC43816, K. pneumoniae WT, No EPI, read-out: Minimum Inhibitory Concentration

| Structure (SMILES) | EC90 (E. coli BW25113) | Minimum Inhibitory Concentration ([1]; K. pneumoniae WT, + 100 µM 1') | Minimum Inhibitory Concentration ([1]; K. pneumoniae WT, + 100 µM 5) | Minimum Inhibitory Concentration [1, 4] | Minimum Inhibitory Concentration ([2]; + 100 µM 1') | Minimum Inhibitory Concentration ([2]; + 100 µM 5) | Minimum Inhibitory Concentration ([2]; + 100 µM PAβN) | MIC [2] | Minimum Inhibitory Concentration ([3]; + 100 µM 1') | Minimum Inhibitory Concentration ([3]; + 100 µM 5) | Minimum Inhibitory Concentration ([3]; + 100 µM PAβN) | Minimum Inhibitory Concentration (K. pneumoniae AcrB^V448E; + 100 µM 1') | Minimum Inhibitory Concentration (K. pneumoniae AcrB^V448E; + 100 µM 5) | Minimum Inhibitory Concentration (K. pneumoniae AcrB^V448E; + 100 µM PAβN) | MIC (K. pneumoniae AcrB^V448E) | MIC [1, 5] | Minimum Inhibitory Concentration ([3]; No EPI) | also measured |
| --- | --- | --- | --- | --- | --- | --- | --- | --- | --- | --- | --- | --- | --- | --- | --- | --- | --- | --- |
| Clc1nc2ccccc2cc1N1CCNCC1 [compound 2] | 15.6 µM |  |  |  |  |  |  |  |  |  |  |  |  |  |  |  |  | decrease in potency (EC90) on changing the position of the nitrogen atom (E. coli BW25113; relative to BDM88855.HCl (1’)): 4 fold |
| NCCCNc1ccc2nc(N3CCNCC3)c(Cl)cc2c1 [compound 11] | 7.8 µM |  |  |  |  |  |  |  |  |  |  |  |  |  |  |  |  | decrease in potency (EC90) (E. coli BW25113; relative to compound 9): 2 fold |
| O=C1CNCCN1c1ccc2nc(N3CCNCC3)c(Cl)cc2c1 [compound 8] | 31 µM |  |  |  |  |  |  |  |  |  |  |  |  |  |  |  |  | decrease in potency (EC90) (E. coli BW25113; piperazinone in place of the piperazine of compound 5): 8 fold |
| CN(C)[C@@H]1C(O)=C(C(N)=O)C(=O)[C@@]2(O)C(O)=C3C(=O)c4c(O)cccc4[C@@](C)(O)[C@H]3C[C@@H]12 [Tetracycline] |  | 0.4^# mg/L | 0.4^# mg/L | 1.3 mg/L | 1.1^# mg/L | 0.7^# mg/L | 4.3^# mg/L | 8.5 µg/mL | 11 mg/L | 8.5 mg/L | 4.3^# mg/L | 0.8^# mg/L | 0.7^# mg/L | 2.7 mg/L | 1.9 µg/mL |  |  | MIC ([1]; ATCC43816, read-out: Minimum Inhibitory Concentration): 0.8 µg/mL; MIC [3]: 11 µg/mL |
| CO[C@@H]1[C@@H](OC(N)=O)[C@@H](O)[C@H](Oc2ccc3c(O)c(NC(=O)c4ccc(O)c(CC=C(C)C)c4)c(=O)oc3c2C)OC1(C)C [Novobiocin] |  | 13^# mg/L | 13^# mg/L | 11^# mg/L | 128 mg/L | 85 mg/L | 43^# mg/L |  | 128 mg/L | 128 mg/L | 8^# mg/L | 64^# mg/L | 32^# mg/L | 16^# mg/L |  | 64 µg/mL | 128 mg/L | Minimum Inhibitory Concentration ([2]; No EPI): 128 mg/L; Minimum Inhibitory Concentration (K. pneumoniae AcrB^V448E; No EPI): 128 mg/L |
| N[C@H]1CCN(c2ccc3nc(N4CCNCC4)c(Cl)cc3c2)C1 [compound 13] | 9.1 ± 4.3 µM |  |  |  |  |  |  |  |  |  |  |  |  |  |  |  |  |  |
| C[C@@H](O)[C@H]1C(=O)N2C(C(=O)O)=C(S[C@@H]3CN[C@H](C(=O)N(C)C)C3)[C@H](C)[C@H]12 [Meropenem] |  | 0.50 mg/L | 0.50 mg/L | 0.50 mg/L | 0.50 mg/L | 0.50 mg/L | 0.50 mg/L | 0.5 µg/mL | 0.50 mg/L | 0.50 mg/L | 1.0 mg/L | 0.67 mg/L | 0.50 mg/L | 0.50 mg/L | 0.5 µg/mL | 0.5 µg/mL |  | MIC [3]: 0.67 µg/mL |
| CC(=O)O[C@H]1C[C@@]2(C)[C@@H](C[C@@H](O)[C@H]3[C@@]4(C)CC[C@@H](O)[C@@H](C)[C@@H]4CC[C@@]32C)/C1=C(\CCC=C(C)C)C(=O)O [Fusidic acid] |  | 85 mg/L | 128 mg/L | 21^# mg/L | 128 mg/L | 128 mg/L | 85 mg/L |  | 128 mg/L | 128 mg/L | 107 mg/L | 128 mg/L | 128 mg/L | 32^# mg/L |  | 128 µg/mL | 128 mg/L | Minimum Inhibitory Concentration ([2]; No EPI): 128 mg/L; Minimum Inhibitory Concentration (K. pneumoniae AcrB^V448E; No EPI): 128 mg/L |
| CC(C)(O/N=C(\C(=O)N[C@@H]1C(=O)N2C(C(=O)[O-])=C(C[n+]3ccccc3)CS[C@H]12)c1csc(N)n1)C(=O)O [Ceftazidime] |  | 0.32 mg/L | 0.53 mg/L | 0.32 mg/L | 1.1 mg/L | 0.64^# mg/L | 0.64^# mg/L | 1.3 µg/mL | 1.28 mg/L | 1.28 mg/L | 1.28 mg/L | 0.37^# mg/L | 0.32^# mg/L | 0.53 mg/L | 0.85 µg/mL | 0.43 µg/mL | 1.28 mg/L |  |
| CC(=O)NC[C@H]1CN(c2ccc(N3CCOCC3)c(F)c2)C(=O)O1 [Linezolid] |  | 13^# mg/L | 27^# mg/L | 64^# mg/L | 128 mg/L | 107 mg/L | 128 mg/L |  | 128 mg/L | 128 mg/L | 128 mg/L | 85 mg/L | 128 mg/L | 64^# mg/L |  | 128 µg/mL | 128 mg/L | Minimum Inhibitory Concentration ([2]; No EPI): 128 mg/L; Minimum Inhibitory Concentration (K. pneumoniae AcrB^V448E; No EPI): 128 mg/L |
| Clc1cc2cc[nH]c2nc1N1CCNCC1 [compound 4] | > 250 µM |  |  |  |  |  |  |  |  |  |  |  |  |  |  |  |  |  |
| CO/N=C(\C(=O)N[C@@H]1C(=O)N2C(C(=O)[O-])=C(C[N+]3(C)CCCC3)CS[C@H]12)c1csc(N)n1 [Cefepime] |  | 0.05 mg/L | 0.05 mg/L | 0.21 mg/L | 0.64 mg/L | 0.11^# mg/L | 0.64 mg/L | 0.53 µg/mL | 0.85 mg/L | 0.96 mg/L | 0.85 mg/L | 0.05 mg/L | 0.04 mg/L | 0.64 mg/L | 0.06 µg/mL | 0.09 µg/mL |  | MIC [3]: 0.75 µg/mL |
